SMILES strings stand for the structures. Inconclusive results are not listed. Active and inactive are the calls of the source.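 Rule for the calls: active = compounds lowering the viability dye signal with a fitted AC50 within twice the top dose in all three time points; inconclusive = time points disagree in their calls; inactive = inactive at every time point, including signal rises.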 Some results are limits rather than exact numbers.

What is called AC50 is the midpoint of the concentration-response curve, whichever way the signal moves.

Test [1] can be described thus: C2C12 mouse myoblast viability loss, dose response, cytotoxicity control for HRAS target identification, cell-based, Alamar Blue fluorescence, 8/24/48 h, dry powder (AID 720601). Particulars: C2C12 mouse myoblast viability, Alamar Blue, 8/24/48 h, at 35 µM, stronger effect = lower value.
The test system of test [2] is C2C12 mouse myoblast viability, Alamar Blue, 8/24/48 h. The description is as above.

On to `Cc1onc(C(=O)N2CCN(C(c3ccncc3)c3ccncc3)CC2)c1[N+](=O)[O-]`, for which the activity in test [1] (8 h viability change) is -0.518%; in test [1] (24 h viability change) it was -6.22%.
For `CCC(=O)N(c1ccc(OC)c(Cl)c1)C(C(=O)NCCc1ccccc1)c1cccs1` (stereo not given), the AC50 in test [2] was > 70 µM (inactive). Also, the activity in test [1] (8 h viability change) is 0.483%; in test [1] (24 h viability change) it was -13.2%.

The values are drawn from PubChem BioAssay AID720601 (Broad Institute, 2013).
